The values below come from PubChem BioAssay AID624344 (Sanford-Burnham Center for Chemical Genomics, 2012).

Calls of active or inactive are those of the source. The rule behind the calls is not given here. Peptide text beside a SMILES is read from it. * marks the point of attachment. CH2Cl = ClC*

A short description of experiment [1]: inhibitors of PAF-induced NFkB signaling in CF airway cells, dose response, cell-based, uHTS hits, panel, cytotoxicity readout (AID 624344). To be noted: CF bronchial epithelial cells, PAF-induced NFkB reporter inhibition; with PAF, mean of runs.
In experiment [2] the test system is Cytotoxicity. Described as above. The note with it: CF bronchial epithelial cells, mean of runs.

Consider `CCOC(=O)c1c(C)c2c(=O)[nH]cnc2n1-c1ccccc1`, for which the IC50 in experiment [1] is 1.89 µM; in experiment [2], 13.9 µM.
On the same counts, the results for `CC1=C(C(=O)OCc2ccc3c(c2)OCO3)C(c2cccc([N+](=O)[O-])c2)NC(=O)N1` (stereo not drawn) are 2.71 µM and > 79 µM (inactive).
On to `O=C1/C(=C/c2cccnc2)CCc2c1[nH]c1ccccc21`, for which the IC50 is 5.47 µM in experiment [1] and 25.1 µM in experiment [2].
On the same counts, the results for `COc1cc(/C=C2\SC(=O)N(CCNC(=O)c3sc4cc(F)ccc4c3Cl)C2=O)cc(OC)c1OC` are 7.99 µM and 11.3 µM.
`Nc1nc(/C=C/c2cccnc2)nc(-c2ccccc2O)n1`: the IC50 in experiment [1] is 4.73 µM; in experiment [2] it was 6.48 µM.
Regarding `CC1CCN(CC(CS(=O)(=O)c2ccc([N+](=O)[O-])cc2)N2CCC(C)CC2)CC1` (stereo not drawn), the IC50 in experiment [1] is 2.44 µM; in experiment [2] it was 3.57 µM.
For the molecule `c1ccc2c(-c3cncc4ccccc34)cncc2c1`, the IC50 is 6.1 µM in experiment [1] and 56.9 µM (inactive) in experiment [2].
In the case of `COc1ccc(OC)c(-c2nnc3n2N=C(c2ccc(OC)c(OCC4CC4)c2)CS3)c1`, the IC50 in experiment [1] was 3.87 µM; in experiment [2], 47.7 µM.
On the same counts, the results for `CC(=O)c1ccc(Nc2ncnc3ccc(Br)cc23)cc1` are 2.18 µM and 37 µM.
On to `c1cc(-c2cnc3cccnn23)c2cccnc2c1`, for which the IC50 in experiment [1] was 2.33 µM; in experiment [2], > 79 µM (inactive).
For `O=c1cc(-c2ccccc2Cl)oc2c([N+](=O)[O-])c(O)cc(O)c12`, the IC50 was 0.235 µM in experiment [1] and 5.36 µM in experiment [2].
On the same counts, the results for `O=C(NNc1ccccc1Br)C(O)(c1cccc(C(F)(F)F)c1)c1cccc(C(F)(F)F)c1` are 5.72 µM and 7.73 µM.
Turning to `Cc1ccc(CCC(=O)Nc2ncc(Cc3cc(Cl)ccc3Cl)s2)o1`, the results for the IC50 in experiment [1] and in experiment [2] were 19.2 µM and 13.2 µM, respectively.
In the case of `Clc1cncc(Cl)c1N/N=C/c1ccncc1`, the IC50 in experiment [1] was 1.67 µM; in experiment [2] it was 12.5 µM.
Turning to `Cc1ccc(N=Cc2cc3c(cc2O)OC(N)=C(C#N)C3c2ccccc2)cc1` (stereo not drawn), the IC50 was 2.07 µM in experiment [1] and 53.6 µM (inactive) in experiment [2].
On the same counts, the results for `O=C1N(c2ccccc2C(F)(F)F)O[C@]1(c1ccccc1)C1CCCCC1` are 10.7 µM and > 79 µM (inactive).
On the same counts, the results for `CN(Cc1ccccc1)c1ncnc(N)c1[N+](=O)[O-]` are 3.49 µM and 54.8 µM (inactive).
As for `COc1ccc(-n2nnnc2C(c2cccs2)N2CCC(n3c(=O)[nH]c4ccccc43)CC2)cc1` (stereo not drawn), the IC50 was 5.05 µM in experiment [1] and 14.2 µM in experiment [2].
As to `OCCCNc1ncnc2scc(-c3ccc(Cl)cc3)c12`, the IC50 in experiment [1] was 2.35 µM; in experiment [2] it was 32.6 µM.
`CN(c1cccc(Cl)c1)S(=O)(=O)c1cccc(C(=O)Nc2nc3ccccc3[nH]2)c1`: the IC50 is 6.19 µM in experiment [1] and 12.2 µM in experiment [2].
`Cc1ncc(CO)c2c1Oc1nc(-c3ccccc3F)nc(SCC(=O)N(C)c3ccccc3)c1C2`: the figures for the half-maximal inhibitory concentration (IC50) in experiment [1] and in experiment [2] were 4.17 µM and 11.3 µM, respectively.
Take `CCC(=NCCc1c(C)[nH]c2ccc(C)cc12)C1=C(O)CC(c2ccccc2)CC1=O` (stereo not drawn): the IC50 was 7.89 µM in experiment [1] and > 79 µM (inactive) in experiment [2].
Turning to `C=CC(=O)Nc1cccc(Oc2ncnc3[nH]cc(-c4cnc5ccccc5c4)c23)c1`, the IC50 is 1.35 µM in experiment [1] and 54.8 µM (inactive) in experiment [2].
On to `O=C1OC(Nc2nc(-c3ccc(F)cc3)cs2)c2ccccc21` (stereo not drawn), for which the IC50 in experiment [1] is 2.31 µM; in experiment [2], 10.7 µM.
On the same counts, the results for `O=C(NCCN1CCN(c2ccccc2)CC1)c1cccc(Br)c1` are 18.9 µM and 57.4 µM (inactive).
Take `C=C(C)COc1ccc(-c2[nH]ncc2-c2ccc(OC)cc2)c(O)c1`: the results for the IC50 in experiment [1] and in experiment [2] were 5.07 µM and 24 µM, respectively.
On to `COc1cc2oc(=O)cc(-c3ccc(-c4ccc(N(C)C)cc4)cc3)c2c(OC)c1OC`, for which the IC50 in experiment [1] is 11.6 µM; in experiment [2], 39.9 µM.
On the same counts, the results for `COc1ccc2cc3c(N)nn(C(=O)c4ccccc4[N+](=O)[O-])c3nc2c1` are 0.54 µM and 40.2 µM.
Consider `CC1Cc2ccccc2N1c1ncnc2nc[nH]c12` (stereo not drawn), for which the results for the IC50 in experiment [1] and in experiment [2] were 2.46 µM and 36.2 µM, respectively.
For the molecule `O=Nc1c(O)n(Cc2c(Cl)cccc2Cl)c2ccccc12`, the figures for the IC50 in experiment [1] and in experiment [2] were 5.45 µM and 49.2 µM, respectively.
Consider `Cc1ccc(NC(=O)c2nc[nH]c2C(=O)NCCCNC(=O)c2[nH]cnc2C(=O)Nc2ccc(C)cc2)cc1`, for which the IC50 in experiment [1] was 3.82 µM; in experiment [2] it was 14 µM.
Take `CC(=O)c1c(C)n(-c2ccc(C)cc2C)c2ccc(O)cc12`: the IC50 in experiment [1] is 12.7 µM; in experiment [2], > 79 µM (inactive).
In the case of `CN(C)/C=C/C(=O)c1ccc2noc(-c3ccccc3)c2c1`, the concentration for half-maximal inhibition (IC50) is 3.54 µM in experiment [1] and 10.8 µM in experiment [2].
On the same counts, the results for `COc1ccc(-n2c(C)c(C(C)=O)c3cc(O)ccc32)cc1` are 0.308 µM and > 79 µM (inactive).
Take `Cc1ccc(S(=O)(=O)Nc2nc3ccccc3nc2Nc2cccc(S(=O)(=O)N3CCCC3)c2)cc1`: the results for the IC50 in experiment [1] and in experiment [2] were 3.57 µM and 41.3 µM, respectively.
On to `COc1ccc(Nc2nc(-c3ccccc3)nc3ccccc23)cc1S(=O)(=O)N1CCOCC1`, for which the results for the IC50 in experiment [1] and in experiment [2] were 4.84 µM and 7.17 µM, respectively.
On to `CCCCCOC(=O)c1[nH]c2c(c1C)C(=O)CC(c1ccco1)C2` (stereo not drawn), for which the IC50 in experiment [1] is 10.8 µM; in experiment [2] it was > 79 µM (inactive).
For `Cc1ccc(CSc2nccc(-c3c(C)nc4ccccn34)n2)cc1`, the IC50 is 3.18 µM in experiment [1] and 26.4 µM in experiment [2].
`COc1ccc(CN(C)C(=O)c2cc(-c3ccc(C)cc3C)nc3ccccc23)c(OC)c1OC`: the figures for the IC50 in experiment [1] and in experiment [2] were 6.52 µM and 7.07 µM, respectively.
Consider `CC(=O)NC(CC(C)C)C(=O)NC(Cc1ccccc1)C(=O)CCl` (stereo not drawn) (Ac-Leu-Phe-CH2Cl; configuration not given here), for which the figures for the IC50 in experiment [1] and in experiment [2] were 2.83 µM and 17.6 µM, respectively.
On the same counts, the results for `CCc1cc(SC#N)cc(C)c1NC(=O)CCl` are 5.47 µM and 43.5 µM.
As for `Fc1ccc(Nc2ccnc(Nc3ccc(F)cc3)n2)cc1`, the values for the IC50 in experiment [1] and in experiment [2] were 7.91 µM and 14 µM, respectively.
As for `c1cc(-c2nnc3sc(C4CCCCC4)nn23)ccn1`, the IC50 in experiment [1] is 3.45 µM; in experiment [2] it was > 79 µM (inactive).
Turning to `COc1cc2cncc(Cc3ccc(Cl)cc3)c2cc1OC`, the IC50 is 2.87 µM in experiment [1] and 20.9 µM in experiment [2].
As to `CCC(CO)Oc1cc(NCc2ccc(Cl)cc2Cl)c2ncn(C(C)C)c2c1` (stereo not drawn), the IC50 entry in experiment [1] is “inactive”. Besides, in experiment [2], the IC50 is 11 µM.
On to `C=CCOc1c(OC)cc(/C=N/Nc2cccc(C(=O)O)c2)c(Br)c1Br`, for which the results for the IC50 in experiment [1] and in experiment [2] were 15.3 µM and 44.5 µM, respectively.
On the same counts, the results for `Cn1ncc2c(O/N=C(\N)c3ccc(C(C)(C)C)cc3)ncnc21` are 8.28 µM and 34.9 µM.
Regarding `CCNC(=O)C1(C)CCCN(Cc2ccc(-c3ccccc3)o2)C1` (stereo not drawn), the IC50 in experiment [1] is 9 µM; in experiment [2], > 79 µM (inactive).
As to `C=CCc1cc(S(=O)(=O)c2ccc(O)c(CC=C)c2)ccc1O`, the values for the IC50 in experiment [1] and in experiment [2] were 6.34 µM and 56.8 µM (inactive), respectively.

The term IC50 denotes the concentration at which inhibition is half-maximal.
